{"source": "patent US10835840B2", "about": "“Methods for in situ separation of mixtures” (INTERNATIONAL SCIENTIFIC PTY LTD, priority 2015, dated 2020)", "key": {"[1]": {"settings": "in vivo", "method": "The subject's volar forearm or upper arm was delineated into two 3×3 cm square regions which were designated […]. […] After an absorption period of 30 minutes, the excess mixture was removed from each region by washing with water. The region was then tape stripped using the adapted procedure of Lademann et al (The tape stripping procedure—evaluation of some critical parameters. European Journal of Pharmaceutics and Biopharmaceutics 72 (2009) 317-323)."}, "[2]": {"test": "Tape stripping after applying niacinamide gel mixture with or without weak magnetic field (ETP008), mass spectrometry", "assay_type": "in vivo", "set-up": "unit not given here", "text": "ETP008—a linear array of displaced dipolar magnetic elements comprising strontium oxides dispersed in a PVC film base. The displaced dipolar magnetic elements were created in parallel with a pole flux of 450 Gauss. Each element or pole was 2.7 mm wide, creating a pair of displaced dipolar magnetic elements of pitch of 1.5 pairs per centimetre. Inter-pair flux gradient was 900 Gauss or 1350 Gauss per centimetre.\nAn aliquot of the niacinamide mixture was applied to both regions without rubbing. A magnetic film (ETP008) was placed in close proximity (approximately 0.5 mm) above the Active region for 5 minutes.\nThe Tape strip samples were then analysed for niacinamide using a validated mass spectrometry method."}, "[3]": {"settings": "Active, Total (6-10) tape strips"}, "[4]": {"settings": "Passive, Total (6-10) tape strips"}}, "note": "“And” between values parts separate entries of the source, which are not always exact repeats. Identical values can stand only once."}
{"compound": "Vitamin E", "values": [{"measurement": "Penetration of Vitamin E into the skin, in words", "setting": "[1]", "value": "much greater penetration"}]}
{"compound": "NC(=O)c1cccnc1", "note": "[Niacinamide]", "values": [{"measurement": "Niacinamide penetration, Average", "setting": "[2]; Active (weak magnetic field, ETP008), Tape Strip 1", "value": 2.907}, {"measurement": "Niacinamide penetration, individual columns 1-6", "setting": "[2]; Active (weak magnetic field, ETP008, 5 minutes), Tape Strip 1, gel mixture, 30 minutes absorption", "value": "4.463 and 1.099 and 1.021 and 3.47 and 2.739 and 4.647"}, {"measurement": "Niacinamide penetration, Average", "setting": "[2]; Active, Tape Strip 2", "value": 2.036}, {"measurement": "Niacinamide penetration, individual columns 1-6", "setting": "[2]; Active, Tape Strip 2", "value": "1.782 and 0.5649 and 1.07 and 1.211 and 2.226 and 5.364"}, {"measurement": "Niacinamide penetration, Average", "setting": "[2]; Active, Tape Strip 3", "value": 1.12}, {"measurement": "Niacinamide penetration, individual columns 1-6", "setting": "[2]; Active, Tape Strip 3", "value": "1.137 and 0.5147 and 1.116 and 1.035 and 1.694 and 1.226"}, {"measurement": "Niacinamide penetration, Average", "setting": "[2]; Active, Tape Strip 4", "value": 0.8796}, {"measurement": "Niacinamide penetration, individual columns 1-6", "setting": "[2]; Active, Tape Strip 4", "value": "0.9888 and 0.7087 and 1.098 and 0.8548 and 0.8425 and 0.7848"}, {"measurement": "Niacinamide penetration, Average", "setting": "[2]; Active, Tape Strip 5", "value": 0.8556}, {"measurement": "Niacinamide penetration, individual columns 1-6", "setting": "[2]; Active, Tape Strip 5", "value": "0.9146 and 0.7814 and 0.7495 and 0.8808 and 1.167 and 0.6402"}, {"measurement": "Niacinamide penetration, Average", "setting": "[2]; Active, Tape Strip 6", "value": 0.7575}, {"measurement": "Niacinamide penetration, individual columns 1-6", "setting": "[2]; Active, Tape Strip 6", "value": "0.895 and 0.8145 and 0.5287 and 0.8757 and 0.7531 and 0.6777"}, {"measurement": "Niacinamide penetration, Average", "setting": "[2]; Active, Tape Strip 7", "value": 0.6674}, {"measurement": "Niacinamide penetration, individual columns 1-6", "setting": "[2]; Active, Tape Strip 7", "value": "0.6261 and 0.5502 and 0.4859 and 0.6321 and 0.6608 and 1.049"}, {"measurement": "Niacinamide penetration, Average", "setting": "[2]; Active, Tape Strip 8", "value": 0.5672}, {"measurement": "Niacinamide penetration, individual columns 1-6", "setting": "[2]; Active, Tape Strip 8", "value": "0.4149 and 0.7107 and 0.4741 and 0.5541 and 0.5753 and 0.6739"}, {"measurement": "Niacinamide penetration, Average", "setting": "[2]; Active, Tape Strip 9", "value": 0.4439}, {"measurement": "Niacinamide penetration, individual columns 1-6", "setting": "[2]; Active, Tape Strip 9", "value": "0.4666 and 0.5396 and 0.4059 and 0.4627 and 0.4898 and 0.2985"}, {"measurement": "Niacinamide penetration, Average", "setting": "[2]; Active, Tape Strip 10", "value": 0.3798}, {"measurement": "Niacinamide penetration, individual columns 1-6", "setting": "[2]; Active, Tape Strip 10", "value": "0.4229 and 0.3982 and 0.3809 and 0.2336 and 0.5187 and 0.3243"}, {"measurement": "Niacinamide penetration, Average", "setting": "[2]; [3]", "value": 2.816}, {"measurement": "Niacinamide penetration, individual columns 1-6", "setting": "[2]; [3]", "value": "2.826 and 3.013 and 2.276 and 2.758 and 2.998 and 3.024"}, {"measurement": "Niacinamide penetration, Average", "setting": "[2]; Passive (no weak magnetic field), Tape Strip 1", "value": 2.428}, {"measurement": "Niacinamide penetration, individual columns 1-6", "setting": "[2]; Passive (no weak magnetic field), Tape Strip 1, gel mixture, 30 minutes absorption", "value": "4.785 and 1.997 and 0.8068 and 3.16 and 2.0563 and 1.761"}, {"measurement": "Niacinamide penetration, Average", "setting": "[2]; Passive, Tape Strip 2", "value": 1.353}, {"measurement": "Niacinamide penetration, individual columns 1-6", "setting": "[2]; Passive, Tape Strip 2", "value": "1.077 and 0.9778 and 1.464 and 0.9842 and 1.846 and 1.768"}, {"measurement": "Niacinamide penetration, Average", "setting": "[2]; Passive, Tape Strip 3", "value": 1.193}, {"measurement": "Niacinamide penetration, individual columns 1-6", "setting": "[2]; Passive, Tape Strip 3", "value": "0.6071 and 0.8166 and 1.131 and 1.06 and 1.456 and 2.085"}, {"measurement": "Niacinamide penetration, Average", "setting": "[2]; Passive, Tape Strip 4", "value": 0.9603}, {"measurement": "Niacinamide penetration, individual columns 1-6", "setting": "[2]; Passive, Tape Strip 4", "value": "0.4947 and 1.297 and 0.8954 and 0.5456 and 0.8406 and 1.689"}, {"measurement": "Niacinamide penetration, Average", "setting": "[2]; Passive, Tape Strip 5", "value": 0.8282}, {"measurement": "Niacinamide penetration, individual columns 1-6", "setting": "[2]; Passive, Tape Strip 5", "value": "0.5925 and 0.8516 and 0.935 and 0.6655 and 0.6213 and 1.303"}, {"measurement": "Niacinamide penetration, Average", "setting": "[2]; Passive, Tape Strip 6", "value": 0.6176}, {"measurement": "Niacinamide penetration, individual columns 1-6", "setting": "[2]; Passive, Tape Strip 6", "value": "0.5736 and 0.5759 and 0.7258 and 0.5432 and 0.6385 and 0.6487"}, {"measurement": "Niacinamide penetration, Average", "setting": "[2]; Passive, Tape Strip 7", "value": 0.6112}, {"measurement": "Niacinamide penetration, individual columns 1-6", "setting": "[2]; Passive, Tape Strip 7", "value": "0.5936 and 0.4867 and 0.5056 and 0.622 and 0.5467 and 0.9127"}, {"measurement": "Niacinamide penetration, Average", "setting": "[2]; Passive, Tape Strip 8", "value": 0.4614}, {"measurement": "Niacinamide penetration, individual columns 1-6", "setting": "[2]; Passive, Tape Strip 8", "value": "0.5657 and 0.4006 and 0.4313 and 0.3634 and 0.4878 and 0.5195"}, {"measurement": "Niacinamide penetration, Average", "setting": "[2]; Passive, Tape Strip 9", "value": 0.3664}, {"measurement": "Niacinamide penetration, individual columns 1-6", "setting": "[2]; Passive, Tape Strip 9", "value": "0.3146 and 0.4048 and 0.4168 and 0.4248 and 0.2422 and 0.3954"}, {"measurement": "Niacinamide penetration, Average", "setting": "[2]; Passive, Tape Strip 10", "value": 0.3966}, {"measurement": "Niacinamide penetration, individual columns 1-6", "setting": "[2]; Passive, Tape Strip 10", "value": "0.3563 and 0.5215 and 0.2107 and 0.4442 and 0.3186 and 0.5283"}, {"measurement": "Niacinamide penetration, Average", "setting": "[2]; [4]", "value": 2.453}, {"measurement": "Niacinamide penetration, individual columns 1-6", "setting": "[2]; [4]", "value": "2.404 and 2.39 and 2.29 and 2.398 and 2.234 and 3.005"}]}
